Source: US10030056B2, “Agents for preventing and treating HIV and other viral infections” (priority 2013, dated 2018)
Non-standard residues stand in square brackets, D forms with d. No end group written: not given here.

Assays:
[1] = tested on: HIV-1 laboratory strain NL4-3 PI 952; assay: Infectivity of HIV-1 NL4-3 PI 952 in TZM-bl cells with 6 μg/ml SEVI fibrils, luciferase activity (FIG. 4, Table 1); type: cell-based; details: for luciferase activity of infected cells, mean value: 6 μg/ml SEVI fibrils, 48 hours after infection, HIV + SEVI control 7264.0, HIV + PBS 579.0; for lowering of the increased infectivity of the viruses caused by fibrils associated with SEVI: summary of Table 1 / FIG. 4
Experimental: The test approach was broken down as follows: The reporter cell line TZM-bl was incubated with the HIV-1 laboratory strain NL4-3 PI 952 in the presence of 6 μg/ml SEVI fibrils (fibril-forming PAP fragments isolated from semen; semen derived enhancer of virus infection). The fibrils were pre-Incubated with or without D3 and D3D3 (0.5 and 5 μg/ml, respectively) prior to infection. The infection efficiency was determined by measuring the luciferase activity (introduced by a luciferase gene coded in the laboratory strain) of the infected cells 48 hours after infection (Table 1: Results of FIG. 4).

[2] = tested on: HIV-1
Source text: So as to analyze the effect of the amyloidogenic inhibitor D3 as a potential therapeutic agent for reducing amyloid peptide-promoted retroviral propagation, adherently growing TZM-bl cells were infected with HIV-1. These cells express the HIV-1 receptors CD4, CXCR4 and CCR5, which is why they are permissive both for T-tropic and M-tropic HIV isolates. […] The TZM-bl indicator cell line thus allows a quantitative analysis of HIV infection efficiency.
D3 was composed of amino acids of the D-enantiomeric form. Forty-eight hours after infection, the TZM-bl cells were washed with PBS, fixed by adding formaldehyde/glutaraldehyde, and subsequently washed again. The β-galactosidase-induced blue coloration of the cells was carried out by incubation overnight with a X-Gal solution. The coloring solution was removed the following day, the fixed cells were washed again with PBS and analyzed for blue coloration by way of optical microscopy. Since these reporter cells also express luciferase, in addition to the β-galactosidase, proportionally with the infection rate, this effect could also be determined quantitatively. […] After adding luciferase substrate solution, the light intensity at the 560 nm wavelength created by the oxidation of luciferin, which, in turn, is catalyzed by the firefly luciferase enzyme, was measured. […]

[3] = tested on: HIV-1; remark: listed apart in the source
Source text: So as to analyze the effect of the amyloidogenic inhibitor D3 as a potential therapeutic agent for reducing amyloid peptide-promoted retroviral propagation, adherently growing TZM-bl cells were infected with HIV-1. […] The TZM-bl indicator cell line thus allows a quantitative analysis of HIV infection efficiency.
D3 was composed of amino acids of the D-enantiomeric form. Forty-eight hours after infection, the TZM-bl cells were washed with PBS, fixed by adding formaldehyde/glutaraldehyde, and subsequently washed again. The β-galactosidase-induced blue coloration of the cells was carried out by incubation overnight with a X-Gal solution. The coloring solution was removed the following day, the fixed cells were washed again with PBS and analyzed for blue coloration by way of optical microscopy. Since these reporter cells also express luciferase, in addition to the β-galactosidase, proportionally with the infection rate, this effect could also be determined quantitatively. For this purpose, the cells were infected in the same manner and, after being washed twice with PBS, were lysed using 1× passive lysis buffer (PLB). After adding luciferase substrate solution, the light intensity at the 560 nm wavelength created by the oxidation of luciferin, which, in turn, is catalyzed by the firefly luciferase enzyme, was measured. […]

[4] = number of cells colored in blue and measured light intensity

rprtrlhthrnrrprtrlhthrnr ([dR][dP][dR][dT][dR][dL][dH][dT][dH][dR][dN][dR][dR][dP][dR][dT][dR][dL][dH][dT][dH][dR][dN][dR]) [D3D3, dimer of two D3 monomer units]
luciferase activity of infected cells, mean value ([1]; 0.5 μg/ml peptide): 5529.7
luciferase activity of infected cells, mean value ([1]; 5 μg/ml peptide): 1321.0
lowering of the increased infectivity of the viruses caused by fibrils associated with SEVI [1]: approximately 80%

rprtrlhthrnr ([dR][dP][dR][dT][dR][dL][dH][dT][dH][dR][dN][dR]) [D3]
luciferase activity of infected cells, mean value ([1]; 0.5 μg/ml peptide): 7112.7
luciferase activity of infected cells, mean value ([1]; 5 μg/ml peptide): 4368.0
lowering of the increased infectivity of the viruses caused by fibrils associated with SEVI [1]: approximately 80%
decrease in number of infected cells compared to the untreated cells with SEVI fibrils ([2]; 0.5 μg/ml D3, SEVI fibrils, TZM-bl cells, FIG. 2C): approximately 60%
reduction of infection rate promoted by SEVI [2, 4]: considerably reduce
decrease in number of infected cells compared to the untreated cells with amyloid-beta fibrils ([3]; 5 μg/ml D3, Aβ1-42 fibrils 50 μg/ml, TZM-bl cells, FIG. 2D): approximately 90%
reduction of infection rate promoted by Aβ [3, 4]: considerably reduce
